Assay results reported in PMC6968383, “Design, synthesis, in vitro and in vivo evaluation of benzylpiperidine-linked 1,3-dimethylbenzimidazolinones as cholinesterase inhibitors against Alzheimer’s disease” (Journal of Enzyme Inhibition and Medicinal Chemistry, 2019).

How the values were obtained:
eeAChE = target: T1, eeAChE (Electrophorus electricus, UniProt O42275); test: Kinetic study of AChE inhibition (Lineweaver–Burk); format: biochemical; settings: Lineweaver–Burk plot, 0, 2, 5, 10, 20 µM
T1 construct: purchased Sigma-Aldrich
T1 sequence (O42275 24-633): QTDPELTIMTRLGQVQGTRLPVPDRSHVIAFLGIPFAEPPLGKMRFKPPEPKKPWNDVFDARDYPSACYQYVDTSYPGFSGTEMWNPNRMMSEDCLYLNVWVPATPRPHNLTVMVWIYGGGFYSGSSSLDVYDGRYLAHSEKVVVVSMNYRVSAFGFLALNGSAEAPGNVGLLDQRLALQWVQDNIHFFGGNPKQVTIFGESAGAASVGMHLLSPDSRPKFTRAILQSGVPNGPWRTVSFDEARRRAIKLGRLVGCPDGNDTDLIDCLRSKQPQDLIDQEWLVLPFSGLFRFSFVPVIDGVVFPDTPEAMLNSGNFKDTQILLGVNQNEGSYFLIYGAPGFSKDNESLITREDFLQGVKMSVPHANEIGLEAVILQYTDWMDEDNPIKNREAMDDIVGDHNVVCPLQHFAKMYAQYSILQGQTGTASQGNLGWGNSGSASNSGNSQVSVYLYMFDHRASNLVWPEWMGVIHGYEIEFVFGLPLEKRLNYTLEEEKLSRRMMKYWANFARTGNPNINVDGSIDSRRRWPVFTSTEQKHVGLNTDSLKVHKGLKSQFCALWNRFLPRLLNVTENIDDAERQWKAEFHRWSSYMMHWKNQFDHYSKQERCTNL
Method: In each case, the kinetic type of enzyme inhibition was obtained through the modified Ellman’s method and Lineweaver–Burk secondary plots.
Figure 2. […] (B) Lineweaver–Burk plot for the inhibition of eqBChE by compound 15j at different concentrations of substrate.
Kinetic studies were performed in the same manner as the determination of ChEs inhibition, while the substrate (ATC/BTC) was used in concentrations of 90, 150, 226, 452, and 904 µM. The concentrations of test compounds were set to 0, 2, 5, 10, and 20 µM for 15b and 0, 0.5, 1, 2, and 5 µM for 15j. The enzymatic reaction was extended to 7 min for eeAChE and eqBuChE before the determination of the absorption. Vmax and Km values of the Michaelis–Menten kinetics were calculated by nonlinear regression from substrate-velocity curves using GraphPad Prism 6.0. Linear regression was used for fitting the Lineweaver–Burk plots.

[1] = target: T2, BChE (EC 3.1.1.8) from horse serum (Equus caballus, UniProt P81908); test: biochemical; settings: eqBChE; mean ± SEM of triplicate independent experiments; read-out: BChE IC50
T2 construct: horse serum BChE (eqBChE, Sigma-Aldrich); purchased Sigma-Aldrich; host or cells: horse serum
T2 sequence (P81908 whole entry): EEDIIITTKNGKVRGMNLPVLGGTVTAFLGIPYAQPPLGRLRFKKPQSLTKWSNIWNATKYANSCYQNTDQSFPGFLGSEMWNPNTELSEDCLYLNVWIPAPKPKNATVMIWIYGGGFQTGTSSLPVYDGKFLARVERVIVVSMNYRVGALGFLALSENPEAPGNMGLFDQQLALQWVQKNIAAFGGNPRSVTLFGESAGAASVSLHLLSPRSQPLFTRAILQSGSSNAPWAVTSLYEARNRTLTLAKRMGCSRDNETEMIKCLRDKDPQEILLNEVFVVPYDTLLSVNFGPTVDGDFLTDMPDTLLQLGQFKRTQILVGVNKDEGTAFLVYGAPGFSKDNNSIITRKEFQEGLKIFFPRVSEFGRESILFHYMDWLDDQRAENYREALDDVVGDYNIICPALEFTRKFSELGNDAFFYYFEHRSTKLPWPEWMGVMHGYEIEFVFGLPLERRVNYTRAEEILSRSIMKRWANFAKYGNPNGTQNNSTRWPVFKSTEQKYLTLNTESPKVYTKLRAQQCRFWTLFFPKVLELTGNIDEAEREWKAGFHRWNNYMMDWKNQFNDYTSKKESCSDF
Method: (§1) The data were expressed as IC50 values (Table 1).
(§2) The inhibitory activities of the target compounds towards AChE (from Electrophorus electricus (electric eeAChE, Sigma-Aldrich) and horse serum BChE (eqBChE, Sigma-Aldrich) or human AChE – huAChE; human BuChE – huBuChE (huAChE, huBuChE, Sigma-Aldrich) were measured by Ellman’s method. In 96-well plates, a mixture of phosphate buffer (0.1 M, pH 8.0, […]), 5,5′-dithiobis-2-nitrobenzoic acid (DTNB, 60 µL), acetylcholinestrase or butyrylcholinesterase (20 µL, 5 IU/mL) and different concentration of the compound solution (30 µL) was pre-incubated for 5 min followed by the addition of the substrate (acetylthiocholine iodide or butyrylthiocholine iodide, 20 µL). […] The measurement of each concentration for each compound was detected in triplicate. GraphPad Prism 6.0 (GraphPad Software, Inc., La Jolla, CA) was used for data processing. The inhibition curve was fitted by plotting percentage enzyme activity (100% for the reference) versus the logarithm of the concentration of tested compound. The half-maximal inhibitory concentration (IC50) values were calculated according to the inhibition curve and the data were shown in the layout of mean ± SEM by GraphPad Prism 6.0.

[2] = target: T3, AChE (EC 3.1.1.7) from electric eel (Electrophorus electricus, UniProt O42275); test: biochemical; format: biochemical
T3 construct: purchased Sigma-Aldrich
T3 sequence (O42275 24-633): as the sequence (O42275 24-633) above
Method: as §1, §2

| Compound | kinetic type of AChE inhibition (eeAChE) | IC50 [1] | SI (selectivity index = AChE IC50/BChE IC50) ([2]; eeAChE IC50 / eqBChE IC50) | IC50 ([2]; eeAChE, mean ± SEM of triplicate independent experiments, read-out: AChE IC50) |
| --- | --- | --- | --- | --- |
| Cc1ccccc1CN1CCC(CNS(=O)(=O)c2ccc3c(c2)n(C)c(=O)n3C)CC1 [Compound 15b, 1,3-dimethyl-N-((1–(2-methylbenzyl)piperidin-4-yl)methyl)-2-oxo-2,3-dihydro-1H-benzo[d]imidazole-5-sulphonamide] | competitive | – | – | – |
| Cn1c(=O)n(C)c2cc(S(=O)(=O)NCC3CCN(Cc4cccc(Br)c4)CC3)ccc21 [Compound 15j, N-((1–(3-bromobenzyl)piperidin-4-yl)methyl)-1,3-dimethyl-2-oxo-2,3-dihydro-1H-benzo[d]imidazole-5-sulphonamide] | – | 160 ± 40 nM | 2.44 | 390 ± 150 nM |
